We go through three molecules from US20240197666A1, “DITERPENOID COMPOUNDS THAT ACT ON PROTEIN KINASE C (PKC)” (K-Gen Therapeutics, Inc., priority 2021, published 2024).

By EC50 is commonly meant the concentration at which the effect is half-maximal. Broadly, the Ki is the dissociation constant of the complex between target and ligand, obtained from inhibition or displacement.

Each structure is given as a SMILES string. Where two headings read alike, the source gives them in different places. A value given as a limit tells only on which side of the number the result lay.

In one assay the test system is A549 cell line. Description: Proliferation of A549 (CellTiter Glo). In kind it is cell-based. To be noted: Homo sapiens, read-out: IC50 μM (A549 Cell Line). The method in brief:
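Compound effect on proliferation was read as CellTiter Glo luminescence after 96 h exposure to a 3-fold dilution series (≤0.25% DMSO). A549 cells, which carry activating K-Ras, were plated at 1,000/well one day before dosing. IC50, relative IC50 and maximal inhibition were fitted from % inhibition versus DMSO control.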
In general terms: In ATP-based viability assays light output follows the ATP content of the culture.

The next assay has as its system Panc2.13 (Pancreatic). Description: Proliferation of Panc2.13. To be noted: for IC50: read-out: IC50 Panc2.13 (Pancreatic). In kind it is cell-based. How it is done:
(§1) The diterpenoid compounds were tested in A549, a non-small cell lung cancer cell line harboring a K-Ras activating mutation. Briefly, A549 cells at a density of 1,000 cells/well were seeded in 96-well plates and incubated at 37° C. for 24 hours. A series of different concentrations of compound stocks (500×) were prepared by 3-fold serial dilution in DMSO. These compounds were further diluted in culture media and then added to cells so that the final DMSO concentration was not exceeding 0.25%. After 96 hours of incubation, 50 μL of CellTiter Glo reagent (Promega) was added to each well and luminescence was measured after 10 minutes using EnVision (PerkinElmer). Luminescence from cells treated with DMSO alone was set as Max and % of inhibition was calculated as follows: Inhibition %=(Max-Sample value)/Max×100. Data was analyzed using XL-fit software (ID Business Solutions Ltd.) and IC50, relative IC50, and % of top inhibition was calculated. Some of the compounds in this disclosure were very potent in blocking proliferation of A549 lung cancer cells at low nM range. In addition, potency of inhibiting A549 proliferation correlated well with its binding affinity to PKCs for this series of compounds. In other words, higher affinity binders had stronger inhibitory effects on A549 proliferation. This further support the notion that activation, rather than inhibition, of certain PKC isoforms is required to block proliferation of cancer cells, some of which may harbor K-Ras mutations. This is in sharp contrast to previous literature and common belief that inhibition of PKC is necessary to block cancer cell growth (Kang, 2014, New Journal of Science, 2014:1-36). Data presented here is in agreement with recent findings that many loss-of-function but not gain-of-function mutations of PKC isoforms have been identified in many human cancers (Antal et al., 2015, Cell, 160:489-502).
(§2) The compounds in this disclosure were tested for their potency in blocking proliferation of a few other cancer cells lines, including K-Ras mutant pancreatic cell lines Panc2.13 and KP-4, leukemia cell line HL-60, and lymphoma cell lines Namalwa and Mino. Similar procedures as in Example 67 were followed. Initial cell numbers seeded in 96-well plates were different for different cell lines: 3000 cells/well for Panc2.13; 800-1000 cells/well for KP-4; 5000 cells/well for HL-60; 5000-10000 cells/well for Namalwa and Mino. A ratio of (IC50 of K101)/(IC50 of compound) (data in parenthesis in Table 5) was used to normalize the compound potency from different assay batches to a common comparator K101.

For another assay, the system named is KP-4 (Pancreatic). Description: Proliferation of KP-4. The class given is cell-based. The conditions noted are these: read-out: IC50 KP-4 (Pancreatic). How it is done:
as §1, §2

Assay [1] deals with NFκB-driven transcription in HeLa-NFκB luciferase reporter cell line. Description: NFκB luciferase reporter assay. To be noted: Homo sapiens, HeLa, 16 h, read-out: NFκB-luc HeLa cells EC50 (μM). (In general: A reporter such as luciferase makes a cellular process visible.)
The next assay deals with HL-60 (Leukemia). Description: Proliferation of HL-60. In kind it is cell-based. The conditions noted are these: for IC50: Homo sapiens.
Another assay deals with Mino (Lymphoma). Description: Proliferation of Mino. The class given is cell-based. To be noted: for IC50: Homo sapiens, MINO, read-out: IC50 Mino (Lymphoma). The essentials:
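Luminescent ATP read-out (CellTiter Glo) after 96 h compound exposure gave % inhibition relative to DMSO-treated cells, from which IC50 was fitted. Seeding densities were line-specific, from 800 to 10000 cells/well. Potency across batches was normalised to reference compound K101.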

Another assay relates to Namalwa (Lymphoma). Description: Proliferation of Namalwa. The class given is cell-based. The conditions noted are these: for IC50: read-out: IC50 Namalwa (Lymphoma). The essentials: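 Panc2.13 was seeded at 3000 cells/well, KP-4 at 800-1000, HL-60 at 5000 and Namalwa at 5000-10000, then given 3-fold serial dilutions of compound with final DMSO ≤0.25% for 96 h at 37° C. CellTiter Glo luminescence was read and inhibition calculated against DMSO-only wells. IC50 was normalised to comparator K101.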

A further assay concerns the target T1, C1b domain of human PKCδ (Homo sapiens, UniProt Q05655).
T1 construct: Genes encoding C1b domains of human PKCα, δ, ε, θ, and PKD1 (PKCμ) were synthesized; made in house; host or cells: E. coli BL21(DE3)
Description: biochemical. In kind it is binding. To be noted: 3H-PDBu competition. The essentials: (§3)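 GST-C1b (human, E. coli-expressed) + 3H-PDBu + compound; 37° C 10 min shaking, then ice 20 min. Filter capture, scintillation count. IC50 → Ki via Cheng-Prusoff, per-prep measured Kd.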

The target in another assay is T2, C1b domain of human PKCε (Homo sapiens, UniProt Q02156).
T2 construct: Genes encoding C1b domains of human PKCα, δ, ε, θ, and PKD1 (PKCμ) were synthesized; made in house; host or cells: E. coli BL21(DE3)
T2 sequence (Q02156 242-292 limits assumed): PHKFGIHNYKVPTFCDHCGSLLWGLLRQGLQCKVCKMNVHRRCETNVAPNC
Description: biochemical. The class given is binding. To be noted: 3H-PDBu competition. The method in brief:
as §3

A further assay deals with PANC1 cells. Description: Sphere formation assay. To be noted: Homo sapiens, PANC-1, read-out: concentration exhibiting at least 50% inhibition on the sphere forming efficiency. The class given is cell-based. On the procedure:
A group of diterpenoid compounds of the present disclosure were tested to assess their effects on blocking formation of spheres from cancer cell lines such as PANC1, a K-Ras mutant pancreatic cell line. Briefly, PANC1 cells were harvested, re-suspended as single cell suspensions, counted and seeded into Ultra Low Attachment Culture 96-well plate (Corning, Cat #3474) at 100 cells/well in 100 μl of complete media (with 10% FBS) containing 2% Matrigel (Corning, Cat #354234) and DMSO or compounds. Six replicates per condition were seeded. The seeded cells were placed in the 37° C. tissue culture incubator. 10 μl of low serum containing media (with 0.1% FBS) was added to each well every week. Spheres formed after 3-4 weeks were counted. Sphere forming efficiency was expressed as percentage of # of spheres/ # of cells seeded.

In a further assay the target is T3, C1b domain of human PKCθ (Homo sapiens, UniProt Q04759).
T3 construct: Genes encoding C1b domains of human PKCα, δ, ε, θ, and PKD1 (PKCμ) were synthesized; made in house; host or cells: E. coli BL21(DE3)
T3 sequence (Q04759 231-281 limits assumed): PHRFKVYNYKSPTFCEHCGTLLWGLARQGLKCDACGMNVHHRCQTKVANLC
Description: biochemical. The conditions noted are these: 3H-PDBu competition. The class given is binding. The essentials: as §3

The next assay deals with T4, C1b domain of human PKCα (Homo sapiens, UniProt P17252).
T4 construct: Genes encoding C1b domains of human PKCα, δ, ε, θ, and PKD1 (PKCμ) were synthesized; made in house; host or cells: E. coli BL21(DE3)
Description: biochemical. In kind it is binding. The conditions noted are these: 3H-PDBu competition.

Assay [2] deals with T5, C1b domain of human PKD1 (PKCμ) (Homo sapiens, UniProt Q15139).
T5 construct: Genes encoding C1b domains of human PKCα, δ, ε, θ, and PKD1 (PKCμ) were synthesized; made in house; host or cells: E. coli BL21(DE3)
T5 sequence (Q15139 270-320 limits assumed): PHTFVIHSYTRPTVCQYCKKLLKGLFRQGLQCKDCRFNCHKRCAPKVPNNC
Description: Competitive 3H-PDBu binding assay, C1b domain of PKD1 (PKCμ). To be noted: 3H-PDBu competition. How it is done:
Compounds described in this disclosure were tested for binding affinity to C1b domain of PKC isoforms. Compound binding affinity to C1b domain of PKC isoforms was derived from competitive binding assay using radioactive tracer ^3H-PDBu and recombinant GST-C1b or full-length of human PKC proteins based on modified procedures from Methods in Molecular Biology, vol.
Genes encoding C1b domains of human PKCα, δ, ε, θ, and PKD1 (PKCμ) were synthesized and inserted into pGEX-2TK or pGEX-4T1 vectors for expression and production of GST-C1b proteins in E. coli BL21(DE3) via IPTG induction. The target proteins were purified by glutathione sepharose 4B and followed by ion exchange chromatography if needed to achieve purity >70%. Aliquots of the purified proteins were stored at −80 degree for binding assay (storage buffer: 20 mM Tris pH 8.0, 200 mM NaCl, 10% glycerol, 1 mM DTT).
The plate was incubated at 37° C. on a shaker at 300 rpm for 10 minutes and then put on ice for 20 minutes. […] The bottom of the filter plate was sealed and 50 μL of MicroScint-20 (PerkinElmer) cocktail was added to each well. ^3H-PDBu trapped in each well was counted using PerkinElmer MicroBeta2 Reader. Data were analyzed using GraphPad Prism5 with the model “log(inhibitor) vs. response-variable slope” to fit the IC50, and then IC50 was transformed to Ki using Cheng-Prusoff equation: Ki=IC50/(1+added radio ligand/Kd). Kd is the binding affinity of each protein preparation to ^3H-PDBu, determined experimentally.

T1 sequence (Q05655 230-280 limits assumed): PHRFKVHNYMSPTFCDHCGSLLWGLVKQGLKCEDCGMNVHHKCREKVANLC

With `CC1=C[C@H]2[C@@]3(O)[C@H](C)C[C@]4(OC(=O)C(C)(C)C)[C@H]([C@@H]3C=C(CO)C[C@]2(O)C1=O)C4(C)C`, the IC50 in the assay with A549 cell line (A549, 96 h) lay within 0.06 to 0.1 µM; in the assay on Panc2.13 (Pancreatic) it was 100 to 200 nM; in the assay with KP-4 (Pancreatic), 100 to 200 nM; with HL-60 (Leukemia) (HL-60, 96 h, read-out: IC50 HL-60 (Leukemia)), 100 to 600 nM; in the assay with Mino (Lymphoma), 10 to 30 nM; with Namalwa (Lymphoma) it was 30 to 60 nM. Further, the IC50 in the assay with PANC1 cells was not above 150 nM. In the assay with Panc2.13 (Pancreatic), the “ratio (IC50 of K101)/(IC50 of compound) Panc2.13” value is 6.29. Also, the EC50 in [1] was in the range of 0.06 to 0.1 µM. The “ratio (IC50 of K101)/(IC50 of compound) HL-60” value with HL-60 (Leukemia) was 5.29. Further, in the assay with Mino (Lymphoma), the “ratio (IC50 of K101)/(IC50 of compound) Mino” value turned out to be 6.82. Moreover, the “ratio (IC50 of K101)/(IC50 of compound) Namalwa” value with Namalwa (Lymphoma) came out at 1.38. Further, the Ki at C1b domain of human PKCδ and on C1b domain of human PKCε was 10 to 30 nM throughout.

Consider `CC1=C[C@H]2[C@@]3(O)[C@H](C)C[C@]4(OC(=O)[C@@H](N)CCC5CCCCC5)[C@H]([C@@H]3C=C(CO)C[C@]2(O)C1=O)C4(C)C`, for which the IC50 was in the range of 0.01 to 0.03 µM in the assay on A549 cell line (A549, 96 h); 30 to 60 nM in the assay on Panc2.13 (Pancreatic); 10 to 30 nM in the assay on KP-4 (Pancreatic); 10 to 30 nM in the assay on HL-60 (Leukemia) (HL-60, read-out: IC50 HL-60 (Leukemia)); 1 to 10 nM in the assay with Mino (Lymphoma); 1 to 10 nM in the assay with Namalwa (Lymphoma). In addition, the IC50 in the assay on PANC1 cells was not above 150 nM. Moreover, the “ratio (IC50 of K101)/(IC50 of compound) Panc2.13” value in the assay on Panc2.13 (Pancreatic) was determined as 20.5. Further, the EC50 in assay [1] is 0.01 to 0.03 µM. Moreover, the “ratio (IC50 of K101)/(IC50 of compound) HL-60” value with HL-60 (Leukemia) is listed as 27.7. In the assay on Mino (Lymphoma), the “ratio (IC50 of K101)/(IC50 of compound) Mino” value was determined as 33. Further, in the assay on Namalwa (Lymphoma), the “ratio (IC50 of K101)/(IC50 of compound) Namalwa” value is 7.42. For the same molecule, the inhibition constant Ki at C1b domain of human PKCθ and at C1b domain of human PKCε was 10 to 30 nM throughout.

On to `CC1=C[C@H]2[C@@]3(O)[C@H](C)C[C@]4(OC(=O)[C@@H](N)C/C=C/c5ccccc5)[C@H]([C@@H]3C=C(CO)C[C@]2(O)C1=O)C4(C)C`, for which the IC50 in the assay on A549 cell line (A549, 96 hours, CellTiter Glo) fell in the range of 0.06 to 0.1 µM. Moreover, the Ki on C1b domain of human PKCα is 100 to 200 nM; in assay [2] it was less than 5 nM; on C1b domain of human PKCδ, 5 to 10 nM.
